Like-named read-outs stand apart in the source and are kept apart here.
Columns and labels:
[1] = test system: MDA-MB-436 cells; test: Cell proliferation assay (MDA-MB-436); format: cell-based; settings: at least 7 days, Cell-Titer Glo, read-out: MDA-MB-436 anti-proliferation assay
Description: (§1) For PARPi sensitivity, exponentially growing MDA-MB-436 and DLD1 BRCA2^−/− cells were seed in 96 or 384-well plates at very low density with the goal of not splitting for at least 7 days (typically 0.3k-1.2k cells/well). Cells were plated on […] and treated with DMSO or increasing concentrations of PARP1 inhibitors on Day 0. At the end of the experiment, cell viability was estimated using Cell-Titer Glo (Promega).

[2] = test system: DLD1 BRCA2−/− cells; test: Cell proliferation assay (DLD1 BRCA2−/−); format: cell-based; settings: at least 7 days, Cell-Titer Glo, read-out: DLD1 BRCA2−/− anti-proliferation assay
Description: as §1

[3] = target: PARP1 (Homo sapiens, UniProt P09874); test: PARP1-DNA enzymatic trapping assay; format: biochemical; settings: 10 nM PARP1, 5 nM DNA probe, 2 mM NAD+, fluorescence polarization read at 30 minutes
Chain of PARP1 (P09874 whole entry): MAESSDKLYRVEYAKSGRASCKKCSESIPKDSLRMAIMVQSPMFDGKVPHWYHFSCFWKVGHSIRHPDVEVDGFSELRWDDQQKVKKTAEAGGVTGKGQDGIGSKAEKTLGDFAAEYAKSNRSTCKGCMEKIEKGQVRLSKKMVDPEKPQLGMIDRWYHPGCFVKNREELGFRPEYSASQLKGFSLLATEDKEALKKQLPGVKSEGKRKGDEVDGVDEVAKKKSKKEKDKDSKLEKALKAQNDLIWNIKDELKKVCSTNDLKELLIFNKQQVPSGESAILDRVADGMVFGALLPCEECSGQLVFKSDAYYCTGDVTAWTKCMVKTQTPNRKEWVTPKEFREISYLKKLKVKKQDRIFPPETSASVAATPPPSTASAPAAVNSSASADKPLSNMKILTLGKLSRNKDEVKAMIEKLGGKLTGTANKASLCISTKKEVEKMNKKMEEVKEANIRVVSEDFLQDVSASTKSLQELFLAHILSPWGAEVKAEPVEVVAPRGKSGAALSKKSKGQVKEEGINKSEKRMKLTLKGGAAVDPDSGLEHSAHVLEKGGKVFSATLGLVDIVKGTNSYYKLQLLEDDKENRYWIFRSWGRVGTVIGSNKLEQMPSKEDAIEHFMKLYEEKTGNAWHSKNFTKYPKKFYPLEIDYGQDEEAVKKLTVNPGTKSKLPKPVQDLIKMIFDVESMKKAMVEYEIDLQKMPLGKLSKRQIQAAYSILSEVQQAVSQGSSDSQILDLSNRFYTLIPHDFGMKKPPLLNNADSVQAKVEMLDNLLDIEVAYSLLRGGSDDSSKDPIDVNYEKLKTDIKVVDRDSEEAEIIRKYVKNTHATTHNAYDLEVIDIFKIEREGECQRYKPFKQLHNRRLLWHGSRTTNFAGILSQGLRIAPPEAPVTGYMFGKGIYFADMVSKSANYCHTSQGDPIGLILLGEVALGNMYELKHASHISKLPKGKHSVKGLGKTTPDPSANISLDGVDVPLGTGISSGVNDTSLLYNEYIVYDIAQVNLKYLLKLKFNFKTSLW
Description: Enzymatic trapping assay is to measure the dissociation process of PARP1 from fluorescein-labeled DNA during the enzymatic activity. Assay was conducted at a total 10 μL of reaction volume, including 10 nM PARP1 and 5 nM DNA probe in the binding buffer (50 mM Tris-HCl pH 8.0, 50 mM NaCl, 1 mM MgCl2, 0.1 mM EDTA, and 0.01% IGEPAL), and was commenced by adding a final concentration of 2 mM NAD+ substrate.
PARP1 Poly-ADP ribosylation (PARylation) inhibitory assay was conducted with compounds dissolved in DMSO at a starting concentration of 5 μM. Dissolved compounds were added to 384-well microplate and premixed with PARPI enzyme and DNA probe for 20 minutes incubation. Enzymatic reactions were started by adding NAD+ to mixture, and each well was read at 30 minutes by microplate reader (VICTOR Nivo®, PerkinElmer) to detect the fluorescence polarization signal at 480 nm excitation/530 nm dual emission.
All measured IC50 values were calculated using four parameters dose-response inhibition model in GraphPad Prism 8.0.2 (La Jolla, California, USA, www.graphpad.com).

[4] = Homo sapiens, MDA-MB-436, 168 h

| IC50 [1, 4] | IC50 ([2]; Homo sapiens, DLD-1, 168 h) | IC50 [3] | IC50 [1] | IC50 [2] | Structure (SMILES) |
| --- | --- | --- | --- | --- | --- |
| 3 nM | 4.14 nM | 23.7 nM |  |  | COCCNC(=O)c1ccc(N2C[C@H]3CN(Cc4cnc5cc(C)c(=O)[nH]c5c4)C[C@@H]3C2)c(F)n1 [Compound 35] |
| > 500 nM | > 500 nM | > 500 nM |  |  | CCC1Oc2ncc(CN3C[C@H]4CN(c5ccc(C(=O)NC6CC6)nc5)C[C@@H]4C3)cc2NC1=O (mixture of isomers) [Compound 16] |
| 76.1 nM | 49.3 nM | 262 nM |  |  | CNC(=O)c1ccc(N2C[C@@H]3CN(Cc4ccc5nc(C)c(=O)[nH]c5c4F)C[C@H]3C2)cn1 (racemic) [Compound 6] |
| 5.13 nM | 13.9 nM | 47.3 nM |  |  | CCC1Oc2ncc(CN3C[C@H]4CN(c5ccc(C(=O)NC)nc5F)C[C@@H]4C3)cc2NC1=O (mixture of isomers) [Compound 8] |
| 0.69 nM | 1.6 nM | 5.99 nM |  |  | CCc1cc2ncc(CN3C[C@H]4CN(c5ccc(C(=O)NCCOC)nc5)C[C@@H]4C3)cc2[nH]c1=O (racemic) [Compound 26] |
| > 500 nM | 468 nM | > 500 nM |  |  | CNC(=O)c1ccc(N2C[C@@H]3CN(Cc4ccc5c(c4F)NC(=O)C(C)O5)C[C@H]3C2)cn1 (mixture of isomers) [Compound 17] |
| 1.42 nM | 4.56 nM | 7.9 nM |  |  | CNC(=O)c1ccc(N2C[C@H]3CN(Cc4ccc5c6c(c(=O)[nH]c5c4)OCCC6)C[C@@H]3C2)c(F)n1 [Compound 88] |
| 1.24 nM | 8.41 nM | 18.9 nM |  |  | O=C(N[C@H]1CCOC1)c1ccc(N2C[C@H]3CN(Cc4cc5[nH]c(=O)c6c(c5cn4)CCC6)C[C@@H]3C2)c(F)n1 [Compound 57] |
| 0.64 nM | 2.16 nM | 10.4 nM |  |  | COCCNC(=O)c1ccc(N2C[C@H]3CN(Cc4ccc5c6c(c(=O)[nH]c5c4)COCC6)C[C@@H]3C2)c(F)n1 [Compound 67] |
| 0.37 nM | 0.45 nM | 8.09 nM |  |  | Cc1cc2ncc(CN3C[C@@H]4CN(c5ccc(C(=O)NC6CC6)nc5F)C[C@H]4C3)cc2[nH]c1=O [Compound 30] |
| 5.06 nM | 7.49 nM | 20.5 nM |  |  | CNC(=O)c1ccc(N2C[C@H]3CN(Cc4cnc5cc(C)c(=O)[nH]c5c4)C[C@@H]3C2)c(C)n1 [Compound 25] |
| 1.1 nM | 0.77 nM | 9.42 nM |  |  | CNC(=O)c1ccc(N2C[C@H]3CN(Cc4cnc5c6c(c(=O)[nH]c5c4)CCC6)C[C@@H]3C2)cn1 [Compound 47] |
| 7.84 nM | 4.92 nM | 20.6 nM |  |  | CNC(=O)c1ccc(N2C[C@H]3CN(Cc4ccc5nc(C)c(=O)[nH]c5c4F)C[C@@H]3C2)c(F)n1 [Compound 10] |
| 31.6 nM | 10.6 nM | 46.3 nM |  |  | CNC(=O)c1ccc(N2C[C@@H]3CN(Cc4ccc5c(c4)[nH]c(=O)n4ccnc54)C[C@H]3C2)cn1 (racemic) [Compound 13] |
|  |  | 411 nM |  |  | O=C(NC1COC1)c1ccc(N2C[C@H]3CN(Cc4ccc5c6c(c(=O)[nH]c5c4)COCC6)C[C@@H]3C2)c(Cl)n1 [Compound 84] |
| 2.08 nM | 1.51 nM | 8.44 nM |  |  | CNC(=O)c1ccc(N2C[C@H]3CN(Cc4cc5[nH]c(=O)c(C)cc5cn4)C[C@@H]3C2)c(F)n1 [Compound 36] |
| 15.7 nM | 45.3 nM | 41.1 nM |  |  | CNC(=O)c1ccc(N2C[C@@H]3CN(Cc4ccc5nc(C)c(=O)[nH]c5c4F)C[C@H]3C2)c(F)n1 (racemic) [Compound 3] |

| IC50 [1, 4] | IC50 ([2]; Homo sapiens, DLD-1, 168 h) | IC50 [3] | IC50 [1] | IC50 [2] | Structure (SMILES) |
| --- | --- | --- | --- | --- | --- |
| 7.29 nM | 141 nM | 101 nM |  |  | CNC(=O)c1ccc(N2C[C@H]3CN(Cc4cc5[nH]c(=O)c6c(c5cn4)COC6)C[C@@H]3C2)c(F)n1 [Compound 63] |
| 2.48 nM | 4.13 nM | 7.81 nM |  |  | CNC(=O)c1ccc(N2C[C@H]3CN(Cc4cnc5cc(OC)c(=O)[nH]c5c4)C[C@@H]3C2)c(F)n1 [Compound 33] |
| 1.74 nM | 8.3 nM | 5.16 nM |  |  | CO[C@H]1C[C@@H](NC(=O)c2ccc(N3C[C@H]4CN(Cc5ccc6c7c(c(=O)[nH]c6c5)OCCC7)C[C@@H]4C3)c(F)n2)C1 [Compound 90] |
| 0.93 nM | 10.2 nM | 8.6 nM |  |  | CO[C@H]1C[C@@H](NC(=O)c2ccc(N3C[C@H]4CN(Cc5cnc6c7c(c(=O)[nH]c6c5)COCC7)C[C@@H]4C3)cn2)C1 [Compound 75] |
| 5.03 nM | 3.68 nM | 17.3 nM |  |  | CNC(=O)c1ccc(N2C[C@@H]3CN(Cc4cnc5c(c4)[nH]c(=O)n4cccc54)C[C@H]3C2)cn1 (racemic) [Compound 12] |
| 0.69 nM | 1.09 nM | 10.9 nM |  |  | CNC(=O)c1ccc(N2C[C@H]3CN(Cc4cnc5c(c4)NC(=O)[C@@H]4CCCN54)C[C@@H]3C2)c(F)n1 [Compound 22] |
| 1.39 nM | 1.22 nM | 9.74 nM |  |  | CCc1cc2cnc(CN3C[C@@H]4CN(c5ccc(C(=O)NC)nc5)C[C@@H]4C3)cc2[nH]c1=O [Compound 39] |
| 20.2 nM | 34.9 nM | 31.1 nM |  |  | CNC(=O)c1ccc(N2C[C@@H]3CN(Cc4cnc5c(c4)NC(=O)[C@@H]4CCCN54)C[C@H]3C2)c(F)n1 [Compound 23] |
| 0.6 nM | 12.3 nM | 14.6 nM |  |  | COCCNC(=O)c1ccc(N2C[C@H]3CN(Cc4ccc5c6c(c(=O)[nH]c5c4)COCC6)C[C@@H]3C2)cn1 [Compound 68] |
|  |  | 6.13 nM | 0.59 nM | 0.59 nM | CCc1cc2ncc(CN3C[C@H]4CN(c5ccc(C(=O)NC)nc5F)C[C@@H]4C3)cc2[nH]c1=O (racemic) [Compound 19] |
| 1.53 nM | 5.86 nM | 7.82 nM |  |  | CNC(=O)c1ccc(N2C[C@H]3CN(Cc4cnc5c6c(c(=O)[nH]c5c4)COC6)C[C@@H]3C2)c(F)n1 [Compound 62] |
|  |  | 111 nM | 39.9 nM | 18.6 nM | CCC1Oc2ncc(CN3C[C@H]4CN(c5ccc(C(=O)NC)nc5)C[C@@H]4C3)cc2NC1=O (mixture of isomers) [Compound 5] |
| 410 nM | > 500 nM | 42.9 nM |  |  | CCc1cc2ncc(CN3C[C@@H]4CN(c5ccc(C(=O)NC)nc5)C[C@@H]4C3)cc2[nH]c1=O [Compound 1] |
| 3.47 nM | 4.12 nM | 16.6 nM |  |  | Cc1cc2ncc(CN3C[C@H]4CN(c5ccc(C(=O)NC6CC6)nc5)C[C@@H]4C3)cc2[nH]c1=O (racemic) [Compound 20] |
| 0.37 nM | 1.35 nM | 5.17 nM |  |  | O=C(NC1COC1)c1ccc(N2C[C@H]3CN(Cc4cc5[nH]c(=O)c6c(c5cn4)CCC6)C[C@@H]3C2)c(F)n1 [Compound 59] |
| 0.7 nM | 2.96 nM | 7.36 nM |  |  | O=C(N[C@H]1CCOC1)c1ccc(N2C[C@H]3CN(Cc4cnc5c6c(c(=O)[nH]c5c4)CCC6)C[C@@H]3C2)c(F)n1 [Compound 51] |
| 407 nM | 371 nM | > 500 nM |  |  | CNC(=O)c1ccc(N2C[C@@H]3CN(Cc4cnc5cc(C)c(=O)[nH]c5c4)C[C@H]3C2)c(C)n1 [Compound 24] |

From patent publication US20260226076A1, “FUSED MULTICYCLIC COMPOUNDS AND THEIR USE AS PARP1 INHIBITORS” (LAEKNA THERAPEUTICS SHANGHAI CO., LTD., priority 2022, published 2026)
